Measurements reported in patent EP4603105A1, “PHARMACEUTICAL COMPOSITION CONTAINING CYCLIC COMPOUND HAVING SELECTIVE KRAS INHIBITORY EFFECT AGAINST HRAS AND NRAS” (CHUGAI SEIYAKU KABUSHIKI KAISHA, priority 2022, dated 2024).
Where a SMILES comes first, the peptide text is derived from it. Bridges are numbered along the chain shown (N, C = ends). [ ]: non-standard residue; d: D form. The star is where a group is joined. hPhe(3-Cl-4-CF3) = N[C@@H](CCc1ccc(C(F)(F)F)c(Cl)c1)C(=O)O; NPrPhe(4-CF3) = CCCN[C@@H](Cc1ccc(C(F)(F)F)cc1)C(=O)O; NMeGly(cPent) = CN[C@H](C(=O)O)C1CCCC1; NMeD = CN[C@@H](CC(=O)O)C(=O)O; NMeL = CN[C@@H](CC(C)C)C(=O)O; NEtAla = CCN[C@@H](C)C(=O)O; Morpholide = C1CN(*)CCO1; NMeA = CN[C@@H](C)C(=O)O; Ac5c = NC1(C(=O)O)CCCC1; Aze = O=C(O)[C@@H]1CCN1; Ac3c = NC1(C(=O)O)CC1; Sar = CNCC(=O)O

Assays:
[1] = molecular target: GDP-bound NRAS wild-type protein (Homo sapiens, UniProt P01111); experiment: Binding to NRAS by surface plasmon resonance (SPR), KD and KD ratio to KRAS
Procedure: (§1) Surface plasmon resonance was used to analyze the binding affinity of compounds for KRAS, NRAS, and HRAS. The apparatus used was Biacore 8K, 8K+, or T200 (GE Healthcare), and the running buffer used was HBS (10 mM HEPES-NaOH, 150 mM NaCl, pH 7.4) containing 1 mM DTT, 10 mM MgCl2, 0.01% Tween 20, 10 µM GDP, and 4% DMSO.
(§2) Biotinylated Avi-tag fusion KRAS, NRAS, and HRAS proteins were expressed in E. coli BL21 (DE3) strains, and after cells were homogenized, they were purified using Streptavidin Mutein Matrix and Superdex 75. After purification, GDP-loaded KRAS, NRAS, and HRAS proteins were immobilized on the surface of Sensor Chip CAP (Cytiva) coated with Biotin CAPture Reagent in an immobilization amount of about 100 to 300 RU. Binding of each compound was evaluated by the Single Cycle Kinetics method, and a running buffer or a compound solution was added to the RAS protein non-immobilized surface and the immobilized surface to obtain a binding response. The flow rate was set to 100 µL/min, and in the compound-adding cycle, compound solutions having different concentrations were intermittently added for 75 seconds each, starting from a low concentration. […] In the blank cycle, a running buffer was intermittently added and not the compound solution. The Biotin CAPture Reagent and RAS proteins were immobilized for each cycle, and at the end of each cycle, the sensor chip was regenerated by the regeneration solution appended to the Biotin CAPture Kit (Cytiva). Measurement was carried out at 30°C.
(§3) The resulting sensorgram was subjected to curve fitting based on a 1:1 binding model on Biacore Insight Evaluation Software or T200 Evaluation Software, and thereby the dissociation constant KD of each compound with respect to KRAS, NRAS, and HRAS was determined. […] Blank indicates a compound from which the KD value with respect to NRAS or HRAS was not obtained.

HRAS wild-type protein = HRAS wild-type protein (Homo sapiens, UniProt P01112); experiment: Binding to HRAS by surface plasmon resonance (SPR), KD and KD ratio to KRAS
Procedure: as §1, §2, §3

[2] = system: human lung cancer strain NCI-H441; assay type: cell-based
Summary of the method: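 Signal came from […] measured per well once the reagent was added. Beforehand, cells were cultured at 37°C and 5% carbon dioxide on a compound series serially diluted in dimethyl sulfoxide.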

[3] = ratio of KD for GDP-bound NRAS wild-type protein to KD for KRAS
[4] = ratio of KD for HRAS wild-type protein to KD for KRAS
[5] = ratio of KD value for GDP-bound NRAS wild-type protein to KD value for KRAS (SPR)
[6] = ratio of KD value for HRAS wild-type protein to KD value for KRAS (SPR)

Chain of HRAS wild-type protein (P01112 whole entry): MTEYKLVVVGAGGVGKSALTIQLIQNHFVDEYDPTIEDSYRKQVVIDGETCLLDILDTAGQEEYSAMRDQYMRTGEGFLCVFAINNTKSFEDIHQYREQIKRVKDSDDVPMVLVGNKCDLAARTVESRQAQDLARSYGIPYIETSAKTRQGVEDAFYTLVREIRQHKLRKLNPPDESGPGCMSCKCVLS
Chain of GDP-bound NRAS wild-type protein (P01111 whole entry): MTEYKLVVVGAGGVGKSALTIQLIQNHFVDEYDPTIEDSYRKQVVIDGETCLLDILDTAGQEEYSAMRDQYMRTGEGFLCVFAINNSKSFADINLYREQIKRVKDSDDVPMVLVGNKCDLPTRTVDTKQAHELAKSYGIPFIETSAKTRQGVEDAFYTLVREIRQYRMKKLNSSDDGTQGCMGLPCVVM

SMILES	IC50 [2] [nM]	NRAS /KRAS [1, 3]	HRAS /KRAS (HRAS wild-type protein; [4])	NRAS /KRAS [1, 5]	HRAS /KRAS (HRAS wild-type protein; [6])	NRAS /KRAS ([1]; ratio of the KD value with respect to GDP-bound NRAS wild-type protein to the KD value with respect to KRAS)	HRAS /KRAS (HRAS wild-type protein; ratio of the KD value with respect to HRAS wild-type protein to the KD value with respect to KRAS)
CCCN1C(=O)[C@@H]2CCN2C(=O)[C@H](C)N(CC)C(=O)[C@H]([C@@H](C)CC)NC(=O)[C@H](CC(C)C)N(C)C(=O)C[C@@H](C(=O)N2CCOCC2)N(C)C(=O)[C@H](C2CCCC2)N(C)C(=O)C2(CCCC2)NC(=O)[C@@H]2CCCN2C(=O)[C@H](CCc2ccc(C(F)(F)F)c(Cl)c2)NC(=O)CN(C)C(=O)[C@@H]1Cc1ccc(C(F)(F)F)cc1 [PP0152] ([NMeL]I[NEtAla][Aze][NPrPhe(4-CF3)][Sar][hPhe(3-Cl-4-CF3)]P[Ac5c][NMeGly(cPent)][NMeD]-Morpholide; lactam N-11)	37.9	C (A compound having a KD ratio of 0.1 or more and less than 3 is denoted as C)	B (a compound having 3 or more and less than 10 is denoted as B)	–	–	–	–
CCC[C@H]1C(=O)N[C@@H]([C@@H](C)CC)C(=O)N(C)CC(=O)N(C)[C@H]2C/C=C\CCN(C2=O)[C@@H](Cc2ccc(C(F)(F)F)cc2)C(=O)N(C)CC(=O)N[C@@H](CCc2ccc(Cl)c(OC)c2)C(=O)N2C[C@H](OCC)C[C@H]2C(=O)NC2(CC(C)(C)C2)C(=O)N(C)[C@@H](C2CCCC2)C(=O)N(C)[C@H](C(=O)N(C)C)CC(=O)N1C [PP2788]	24.4	A (a compound having 10 or more and less than 20 is denoted as A)	A (a compound having 10 or more and less than 20 is denoted as A)	–	–	–	–
CC[C@H](C)[C@@H]1NC(=O)[C@H](CC(F)(F)F)N(C)C(=O)C[C@@H](C(=O)N(C)C)N(C)C(=O)[C@H](C2CCCC2)N(C)C(=O)C2(CC(C)(C)C2)NC(=O)[C@@H]2CC(F)(F)CN2C(=O)[C@H](CCc2cc(F)c(C(F)(F)F)c(F)c2)NC(=O)CN(C)C(=O)[C@H](Cc2ccc(C(F)(F)F)cc2)N2CC/C=C\C[C@@H](C2=O)N(C)C(=O)CN(C)C1=O [PP1710]	4.1	–	–	A (a compound having 10 or more and less than 20 is denoted as A)	B (a compound having 3 or more and less than 10 is denoted as B)	–	–

More lines, main results first:

IC50 [2] [nM]	SMILES	NRAS /KRAS [1, 3]	HRAS /KRAS (HRAS wild-type protein; [4])	NRAS /KRAS [1, 5]	HRAS /KRAS (HRAS wild-type protein; [6])	NRAS /KRAS ([1]; ratio of the KD value with respect to GDP-bound NRAS wild-type protein to the KD value with respect to KRAS)	HRAS /KRAS (HRAS wild-type protein; ratio of the KD value with respect to HRAS wild-type protein to the KD value with respect to KRAS)
2	CCCN1C(=O)[C@@H]2CCN2C(=O)[C@H](C)N(C)C(=O)[C@H]([C@@H](C)CC)NC(=O)[C@H](CC(C)C)N(C)C(=O)C[C@@H](C(=O)N2CCOCC2)N(C)C(=O)[C@H](C2CCCC2)N(C)C(=O)C2(CC2)NC(=O)[C@@H]2CCCN2C(=O)[C@H](CCc2ccc(C(F)(F)F)c(Cl)c2)NC(=O)CN(C)C(=O)[C@@H]1Cc1ccc(C(F)(F)F)cc1 [PP0224] ([NMeL]I[NMeA][Aze][NPrPhe(4-CF3)][Sar][hPhe(3-Cl-4-CF3)]P[Ac3c][NMeGly(cPent)][NMeD]-Morpholide; lactam N-11)	C (A compound having a KD ratio of 0.1 or more and less than 3 is denoted as C)	B (a compound having 3 or more and less than 10 is denoted as B)	–	–	–	–
2.2	CCCC[C@H]1C(=O)N[C@@H]([C@@H](C)CC)C(=O)N(C)CC(=O)N(C)[C@H]2C/C=C\CCN(C2=O)[C@@H](Cc2ccc(C(F)(F)F)cc2)C(=O)N(C)CC(=O)N[C@@H](CCc2cc(F)c(C(F)(F)F)c(F)c2)C(=O)N2C[C@H](OCC)C[C@H]2C(=O)NC2(CC(C)(C)C2)C(=O)N(C)[C@@H](C2CCCC2)C(=O)N(C)[C@H](C(=O)N(C)C)CC(=O)N1C [PP1649]	–	–	A (a compound having 10 or more and less than 20 is denoted as A)	B (a compound having 3 or more and less than 10 is denoted as B)	–	–
20.6	CCO[C@@H]1C[C@H]2C(=O)NC3(CC(C)(C)C3)C(=O)N(C)[C@@H](C(CC)CC)C(=O)N(C)[C@H](C(=O)N(C)C)CC(=O)N(C)[C@@H](CC3CCC3)C(=O)N[C@@H]([C@@H](C)CC)C(=O)N(C)CC(=O)N(C)[C@H]3C/C=C\CCN(C3=O)[C@@H](Cc3ccc(C)cc3)C(=O)N(C)CC(=O)N[C@@H](CCc3ccc(C(F)(F)F)c(Cl)c3)C(=O)N2C1 [PP2156]	–	–	–	–	AA (a compound having 20 or more is denoted as AA)	A (a compound having 10 or more and less than 20 is denoted as A)
